In patent US20230277632A1, “MODIFIED PlySs2 LYSINS AND ANTIBIOTIC COMBINATIONS FOR USE AGAINST GRAM-POSITIVE BACTERIA” (ContraFect Corporation, priority 2020, published 2023):
In brackets after ≈: the same amount, converted by molar mass. Several values for one entry are separate records, joined by “and”; a condition that tells them apart may be missing. Identical values can stand only once.

Tests used:
S. aureus isolates [1] = assay: Vancomycin dose-ranging, neutropenic murine thigh infection model; format: in vivo; settings: 24 h
Description: (§1) Study animals: Specific pathogen-free female ICR mice (average body weight 23 grams) were provided food and water ad libitum and maintained and used in accordance with National Research Council recommendations. Animals were allowed a 48-hour post-delivery acclimation period before every experiment. Mice were rendered transiently neutropenic by injection of cyclophosphamide via intraperitoneal (IP) route at a dose of 150 mg/kg of body weight at four days before bacterial inoculation and 100 mg/kg of body weight at one day before bacterial inoculation.
(§2) Neutropenic Thigh Infection Model: Two transfers of the bacterial isolates were performed onto trypticase soy agar plates with 5% sheep blood and placed into an incubator at 37° C. for approximately 24 hours. After an 18-24 hour incubation of the second transfer, a suspension of approximately 10^7 CFU/mL was made for inoculation. Final bacterial inoculum concentrations were confirmed by serial dilution and plating techniques. Thigh infection with the test isolate was produced by intramuscular injection of 0.1 mL of the bacterial inoculum into each thigh of the mice. […]
Two hours post-bacterial inoculation, one group of mice (n=3) was sacrificed to serve as a 0 hour control, representing initial bacterial burden in the thigh, wherein bacterial burden is determined as the average CFU from 6 thighs, i.e., 2 thighs per mouse. […]

S. aureus isolates [2] = assay: MIC determination (broth microdilution) against 8 S. aureus isolates; format: cell-based; settings: CAMHB, unit assumed
Description: Suitable methods for assessing the activity of a modified lysin polypeptide as disclosed herein are well known in the art and described in the examples. […] For example, MIC values for a modified lysin polypeptide may be determined against e.g., laboratory Staphylococcus aureus strains, in e.g., Mueller-Hinton broth or Mueller-Hinton broth supplemented with serum, such as horse serum.
The pp296 MICs were determined based on (1) cation-adjusted Mueller-Hinton Broth with 25% horse serum and 0.5 mM DTT (caMHB-HSD); (2) human serum (100% serum); and (3) ICR mice (100% serum). Vancomycin and daptomycin MICs of the isolate strains were determined in accordance with the broth microdilution method as outlined by CLSI. Results of the MIC determination are shown below in Table 2. The bacterial isolates were frozen at −80° C. in skim milk.

S. aureus = assay: pp296 dose fractionation study, neutropenic murine thigh infection model; format: in vivo; settings: vancomycin 3 mg/kg Q12h SC alone, 24 h
Description: Each of the pp296 TDDs was fractionated into three regimens, i.e., one-third of the entire dose was administered via IV three times (q8h); one-half of the entire does was administered via IV two times (q12h), or the entire dose was administered via IV once daily over a 24-hour period, for a total of three groups per each TDD.
Untreated control mice (n=3/group) were sacrificed just prior to antibiotic administration, as well as 24 hours later. Animals sacrificed prior to antibiotic administration served as 0-hour control animals, representing initial bacterial burden. The 24-hour control animals received sterile normal saline in the same volume and schedule as the most frequent active drug regimen. […] After the 24-hour treatment period, all animals were euthanized and thighs were cultured quantitatively as described above. The change in bacterial density was calculated for each of the dosing regimen. Comparisons were made between the different regimens of the same total daily dose on bacterial burdens at 24 hours using one-way Analysis of Variance (ANOVA) test followed by Tukey's test where the P value was 0.05.

S. aureus isolates [3] = assay: In vivo efficacy of vancomycin in combination with pp296, neutropenic murine thigh infection model; settings: 24 h; for Replicate Log10 CFU/thigh data: listed as VAN
Description: as §1
as §2, with “mice. Antimicrobial therapy was initiated 2 hours after bacterial inoculation, as detailed below.” for “mice.”
Untreated control mice (n=3) were sacrificed just prior to antibiotic administration and 24 hours after bacterial inoculation. Animals sacrificed prior to antibiotic initiation served as 0-hour control animals, representing initial bacterial burden. […] Treatment mice (n=3/group) were sacrificed at the end of the 24 hour treatment period. After sacrifice, both thighs for each mouse were homogenized in normal saline. Serial dilutions were plated on Trypticase soy agar with 5% sheep blood and incubated for 18 to 20 hours at 37.0 to determine the CFU. Efficacy was calculated as the change in bacterial density obtained in treated mice after 24 hours compared with the numbers in the 0-hour control animals. Bacterial density represents the average CFU determined from 3 mice, each contributing 2 thighs.

CN[C@H](CC(C)C)C(=O)N[C@H]1C(=O)N[C@@H](CC(N)=O)C(=O)N[C@H]2C(=O)N[C@H]3C(=O)N[C@H](C(=O)N[C@H](C(=O)O)c4cc(O)cc(O)c4-c4cc3ccc4O)[C@H](O)c3ccc(c(Cl)c3)Oc3cc2cc(c3O[C@@H]2O[C@H](CO)[C@@H](O)[C@H](O)[C@H]2O[C@H]2C[C@](C)(N)[C@H](O)[C@H](C)O2)Oc2ccc(cc2Cl)[C@H]1O [Vancomycin, vancomycin]
bacterial burden reduction vs 0-hour controls (S. aureus isolates [1]; upper end of dose-response, vancomycin 3.125-25 mg/kg q12h SC, all isolates): −1.15±0.40 log10 CFU/thigh | mean bacterial burden change vs 0-hour controls (S. aureus isolates [1]; vancomycin 3.125 mg/kg q12h SC, mean of 8 isolates): −0.05±1.16 log10 CFU/thigh | MIC Vancomycin (CAMHB) (S. aureus isolates [2]; ATCC 29213 MSSA): 1 µg/mL (≈ 0.69 µM) | MIC Vancomycin (CAMHB) (S. aureus isolates [2]; CAIRD426 MRSA): 1 µg/mL (≈ 0.69 µM) | MIC Vancomycin (CAMHB) (S. aureus isolates [2]; HPV107 MRSA): 1 µg/mL (≈ 0.69 µM) | MIC Vancomycin (CAMHB) (S. aureus isolates [2]; JMI227 MRSA): 1 µg/mL (≈ 0.69 µM) | MIC Vancomycin (CAMHB) (S. aureus isolates [2]; JMI4789 MRSA): 1 µg/mL (≈ 0.69 µM) | MIC Vancomycin (CAMHB) (S. aureus isolates [2]; NRS100 (COL) MRSA): 1 µg/mL (≈ 0.69 µM) | MIC Vancomycin (CAMHB) (S. aureus isolates [2]; NRS123 (MW2) MRSA): 1 µg/mL (≈ 0.69 µM) | MIC Vancomycin (CAMHB) (S. aureus isolates [2]; NRS271 MRSA/LRSA): 1 µg/mL (≈ 0.69 µM) | bacterial burden vs 0-hour control mice (S. aureus): 0.41±0.62 log10 CFU/thigh | Replicate Log10 CFU/thigh data (S. aureus isolates [3]; ATCC2921, VAN 3 mg/kg alone): 4.59 Log10 CFU/thigh and 4.96 Log10 CFU/thigh and 7.87 Log10 CFU/thigh and 5.18 Log10 CFU/thigh and 7.18 Log10 CFU/thigh and 6.03 Log10 CFU/thigh | Replicate Log10 CFU/thigh data (S. aureus isolates [3]; CAIRD426, VAN 1.5 mg/kg alone): 6.89 Log10 CFU/thigh and 6.51 Log10 CFU/thigh and 7.97 Log10 CFU/thigh and 8.04 Log10 CFU/thigh | Replicate Log10 CFU/thigh data (S. aureus isolates [3]; CAIRD426, VAN 3 mg/kg alone, Run #1): 4.81 Log10 CFU/thigh and 7.53 Log10 CFU/thigh and 6.53 Log10 CFU/thigh | Replicate Log10 CFU/thigh data (S. aureus isolates [3]; CAIRD426, VAN 3 mg/kg alone, Run #2): 7.82 Log10 CFU/thigh and 8.21 Log10 CFU/thigh and 7.74 Log10 CFU/thigh and 7.40 Log10 CFU/thigh and 7.47 Log10 CFU/thigh and 7.20 Log10 CFU/thigh | Replicate Log10 CFU/thigh data (S. aureus isolates [3]; HPV107, VAN 1.5 mg/kg alone): 8.44 Log10 CFU/thigh and 8.20 Log10 CFU/thigh and 8.00 Log10 CFU/thigh and 7.87 Log10 CFU/thigh and 8.32 Log10 CFU/thigh | Replicate Log10 CFU/thigh data (S. aureus isolates [3]; HPV107, VAN 3 mg/kg alone, Run #1): 7.50 Log10 CFU/thigh and 7.81 Log10 CFU/thigh and 7.24 Log10 CFU/thigh and 7.40 Log10 CFU/thigh and 7.36 Log10 CFU/thigh and 6.51 Log10 CFU/thigh | Replicate Log10 CFU/thigh data (S. aureus isolates [3]; HPV107, VAN 3 mg/kg alone, Run #2): 7.49 Log10 CFU/thigh and 7.73 Log10 CFU/thigh and 5.45 Log10 CFU/thigh | Replicate Log10 CFU/thigh data (S. aureus isolates [3]; JMI227, VAN 3 mg/kg alone): 7.50 Log10 CFU/thigh and 6.17 Log10 CFU/thigh and 8.04 Log10 CFU/thigh and 8.21 Log10 CFU/thigh and 8.47 Log10 CFU/thigh and 7.51 Log10 CFU/thigh | Replicate Log10 CFU/thigh data (S. aureus isolates [3]; JMI4789, VAN 3 mg/kg alone): 8.41 Log10 CFU/thigh and 8.01 Log10 CFU/thigh and 6.93 Log10 CFU/thigh (2×) and 4.92 Log10 CFU/thigh | Replicate Log10 CFU/thigh data (S. aureus isolates [3]; NRS100, VAN 1.5 mg/kg alone): 6.30 Log10 CFU/thigh and 4.89 Log10 CFU/thigh and 4.85 Log10 CFU/thigh and 4.30 Log10 CFU/thigh and 4.69 Log10 CFU/thigh and 6.73 Log10 CFU/thigh | Replicate Log10 CFU/thigh data (S. aureus isolates [3]; NRS100, VAN 3 mg/kg alone, Run #1): 4.58 Log10 CFU/thigh (2×) and 4.90 Log10 CFU/thigh and 4.89 Log10 CFU/thigh and 4.48 Log10 CFU/thigh and 4.56 Log10 CFU/thigh | Replicate Log10 CFU/thigh data (S. aureus isolates [3]; NRS100, VAN 3 mg/kg alone, Run #2): 4.75 Log10 CFU/thigh and 6.89 Log10 CFU/thigh and 4.70 Log10 CFU/thigh and 4.58 Log10 CFU/thigh and 4.83 Log10 CFU/thigh and 6.46 Log10 CFU/thigh | Replicate Log10 CFU/thigh data (S. aureus isolates [3]; NRS123, VAN 3 mg/kg alone): 7.17 Log10 CFU/thigh and 7.02 Log10 CFU/thigh and 7.77 Log10 CFU/thigh and 8.38 Log10 CFU/thigh and 8.32 Log10 CFU/thigh and 8.01 Log10 CFU/thigh | Replicate Log10 CFU/thigh data (S. aureus isolates [3]; NRS217, VAN 1.5 mg/kg alone): 7.60 Log10 CFU/thigh and 8.28 Log10 CFU/thigh and 8.26 Log10 CFU/thigh and 7.90 Log10 CFU/thigh and 6.43 Log10 CFU/thigh and 7.61 Log10 CFU/thigh | Replicate Log10 CFU/thigh data (S. aureus isolates [3]; NRS217, VAN 3 mg/kg alone, Run #1): 6.66 Log10 CFU/thigh and 6.70 Log10 CFU/thigh and 7.23 Log10 CFU/thigh and 6.68 Log10 CFU/thigh and 7.60 Log10 CFU/thigh and 6.55 Log10 CFU/thigh | Replicate Log10 CFU/thigh data (S. aureus isolates [3]; NRS217, VAN 3 mg/kg alone, Run #2): 7.06 Log10 CFU/thigh and 7.38 Log10 CFU/thigh and 5.26 Log10 CFU/thigh and 4.73 Log10 CFU/thigh and 6.82 Log10 CFU/thigh | Replicate Log10 CFU/thigh data (S. aureus isolates [3]; isolate HPV107, VAN 5 mg/kg q12h SC alone): 4.73 Log10 CFU/thigh and 8.28 Log10 CFU/thigh and 4.75 Log10 CFU/thigh and 4.88 Log10 CFU/thigh | Replicate Log10 CFU/thigh data (S. aureus isolates [3]; isolate NRS100, VAN 5 mg/kg q12h SC alone): 4.68 Log10 CFU/thigh (2×) and 4.78 Log10 CFU/thigh (2×) and 4.56 Log10 CFU/thigh and 4.73 Log10 CFU/thigh | Replicate Log10 CFU/thigh data (S. aureus isolates [3]; isolate NRS217, VAN 5 mg/kg q12h SC alone): 4.64 Log10 CFU/thigh and 6.13 Log10 CFU/thigh and 4.76 Log10 CFU/thigh and 4.56 Log10 CFU/thigh and 4.75 Log10 CFU/thigh | average bacterial growth vs starting inoculum (S. aureus isolates [3]; vancomycin 1.5 mg/kg Q12h SC alone, 4 isolates): 2.75±0.52 log10 CFU/thigh | average bacterial reduction vs starting inoculum (S. aureus isolates [3]; vancomycin 5 mg/kg q12h SC alone, 4 isolates): −0.38±1.10 log10 CFU/thigh
